In PubChem BioAssay AID2060496 (Molecular Pharmacology Branch, DTP, NCI, 2025):

Test system: 276233-004-R-J1-PDC complex spheroid viability
Assay: Anticancer human tumor 276233-004-R-J1-PDC patient-derived colon adenocarcinoma cell line growth inhibition [GQUAD]
Details: for IC50: curve of first compound; for viability, T/C: stronger effect = lower value
Outline: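 Tumor cells were grown as complex spheroids with HUVEC endothelial cells and mesenchymal stem cells as stroma. G-quadruplex stabilizers were combined with targeted agents over half-log dilutions from near the clinical Cmax, or from 10 microM.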

[1] = second compound 0.0316 µM, first compound 0.0316 µM
[2] = second compound 0.0316 µM, first compound 0.1 µM
[3] = second compound 0.0316 µM, first compound 0.316 µM
[4] = second compound 0.0316 µM, first compound 1 µM
[5] = second compound 0.0316 µM, first compound 3.16 µM
[6] = second compound 0.0316 µM, first compound 10 µM
[7] = second compound 0.1 µM, first compound 0.0316 µM
[8] = second compound 0.1 µM, first compound 0.1 µM
[9] = second compound 0.1 µM, first compound 0.316 µM
[10] = second compound 0.1 µM, first compound 1 µM
[11] = second compound 0.1 µM, first compound 3.16 µM
[12] = second compound 0.1 µM, first compound 10 µM
[13] = second compound 0.316 µM, first compound 0.0316 µM
[14] = second compound 0.316 µM, first compound 0.1 µM
[15] = second compound 0.316 µM, first compound 0.316 µM
[16] = second compound 0.316 µM, first compound 1 µM
[17] = second compound 0.316 µM, first compound 3.16 µM
[18] = second compound 0.316 µM, first compound 10 µM
[19] = second compound 1 µM, first compound 0.0316 µM
[20] = second compound 1 µM, first compound 0.1 µM
[21] = second compound 1 µM, first compound 0.316 µM
[22] = second compound 1 µM, first compound 1 µM
[23] = second compound 1 µM, first compound 3.16 µM
[24] = second compound 1 µM, first compound 10 µM
[25] = second compound 3.16 µM, first compound 0.0316 µM
[26] = second compound 3.16 µM, first compound 0.1 µM
[27] = second compound 3.16 µM, first compound 0.316 µM
[28] = second compound 3.16 µM, first compound 1 µM
[29] = second compound 3.16 µM, first compound 3.16 µM
[30] = second compound 3.16 µM, first compound 10 µM
[31] = second compound 10 µM, first compound 0.0316 µM
[32] = second compound 10 µM, first compound 0.1 µM
[33] = second compound 10 µM, first compound 0.316 µM
[34] = second compound 10 µM, first compound 1 µM
[35] = second compound 10 µM, first compound 3.16 µM
[36] = second compound 10 µM, first compound 10 µM
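Note: spheroids exposed to drugs for seven days.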
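Throughout, for viability, T/C: 100% = DMSO vehicle control viability.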

For `COc1ccc([C@@H](O)c2cc(-c3ncnc4cc(N5CCOCC5)ccc34)c(F)cc2Cl)nn1` + Cc1[nH]c2ccc(F)cc2c1-c1nc2c3cccnc3c3ncccc3c2[nH]1, which IC50 (second compound 0.0316 µM) is on record?
The IC50 was greater than 10 µM.

What about the IC50 (second compound 0.1 µM) of the same molecule?
Its IC50 is greater than 10 µM.

And the IC50 (second compound 0.316 µM)?
The IC50 was greater than 10 µM.

And the IC50 (second compound 1 µM)?
The IC50 was 5.02 µM.

What about the IC50 (second compound 3.16 µM) of the same molecule?
Its IC50 is 0.424 µM.

And the IC50 (second compound 10 µM)?
Its IC50 is 0.352 µM.

And the viability, T/C [1]?
The viability, T/C was 89.6%.

And the viability, T/C [2]?
Its viability, T/C is 77.9%.

What about the viability, T/C [3] of the same molecule?
The viability, T/C was 97.2%.

And the viability, T/C [4]?
Its viability, T/C is 72.6%.

And the viability, T/C [5]?
Its viability, T/C is 72.6%.

What about the viability, T/C [6] of the same molecule?
Its viability, T/C is 68.7%.

What about the viability, T/C [7] of the same molecule?
The viability, T/C was 88.3%.

What about the viability, T/C [8] of the same molecule?
The viability, T/C was 79.6%.

What about the viability, T/C [9] of the same molecule?
The viability, T/C was 70.5%.

What about the viability, T/C [10] of the same molecule?
The viability, T/C was 74%.

And the viability, T/C [11]?
Its viability, T/C is 72.7%.

And the viability, T/C [12]?
Its viability, T/C is 65.7%.

What about the viability, T/C [13] of the same molecule?
The viability, T/C was 87.8%.

What about the viability, T/C [14] of the same molecule?
The viability, T/C was 79.4%.

What about the viability, T/C [15] of the same molecule?
The viability, T/C was 96%.

What about the viability, T/C [16] of the same molecule?
Its viability, T/C is 80.9%.

And the viability, T/C [17]?
The viability, T/C was 70.9%.

And the viability, T/C [18]?
The viability, T/C was 61.2%.

What about the viability, T/C [19] of the same molecule?
Its viability, T/C is 61.1%.

And the viability, T/C [20]?
Its viability, T/C is 70.1%.

What about the viability, T/C [21] of the same molecule?
Its viability, T/C is 67%.

And the viability, T/C [22]?
Its viability, T/C is 62.2%.

What about the viability, T/C [23] of the same molecule?
Its viability, T/C is 50.4%.

And the viability, T/C [24]?
The viability, T/C was 44.5%.

What about the viability, T/C [25] of the same molecule?
Its viability, T/C is 59%.

What about the viability, T/C [26] of the same molecule?
The viability, T/C was 51.7%.

What about the viability, T/C [27] of the same molecule?
Its viability, T/C is 51.1%.

And the viability, T/C [28]?
The viability, T/C was 49.1%.

And the viability, T/C [29]?
The viability, T/C was 33.3%.

What about the viability, T/C [30] of the same molecule?
The viability, T/C was 24.1%.

What about the viability, T/C [31] of the same molecule?
The viability, T/C was 53.4%.

And the viability, T/C [32]?
Its viability, T/C is 48%.

What about the viability, T/C [33] of the same molecule?
The viability, T/C was 53%.

What about the viability, T/C [34] of the same molecule?
The viability, T/C was 41.5%.

What about the viability, T/C [35] of the same molecule?
Its viability, T/C is 29%.

What about the viability, T/C [36] of the same molecule?
The viability, T/C was 25.6%.

Which IC50 (second compound 0.0316 µM) does the source give for `CC(C)(O)C1CCC(Nc2ccc3ncc(-c4cccc(C(F)(F)F)c4)n3n2)CC1` (stereo unspecified) + Cc1cnc(CNC(=O)c2c(=O)c3ccc(N4CCCN(C)CC4)nc3n3c2sc2ccccc23)cn1 here?
The IC50 was greater than 10 µM.

What about the IC50 (second compound 0.1 µM) of the same molecule?
Its IC50 is greater than 10 µM.

What about the IC50 (second compound 0.316 µM) of the same molecule?
Its IC50 is greater than 10 µM.

And the IC50 (second compound 1 µM)?
The IC50 was 3 µM.

What about the IC50 (second compound 3.16 µM) of the same molecule?
The IC50 was 0.994 µM.

And the IC50 (second compound 10 µM)?
Its IC50 is 0.995 µM.

What about the viability, T/C [1] of the same molecule?
Its viability, T/C is 94.9%.

What about the viability, T/C [2] of the same molecule?
Its viability, T/C is 79.8%.

And the viability, T/C [3]?
The viability, T/C was 81.8%.

And the viability, T/C [4]?
The viability, T/C was 70.6%.

What about the viability, T/C [5] of the same molecule?
Its viability, T/C is 55.2%.

What about the viability, T/C [6] of the same molecule?
Its viability, T/C is 58.8%.

And the viability, T/C [7]?
The viability, T/C was 83.2%.

And the viability, T/C [8]?
Its viability, T/C is 109%.

What about the viability, T/C [9] of the same molecule?
Its viability, T/C is 78.4%.

And the viability, T/C [10]?
Its viability, T/C is 68.9%.

And the viability, T/C [11]?
Its viability, T/C is 49.4%.

What about the viability, T/C [12] of the same molecule?
Its viability, T/C is 55.6%.

What about the viability, T/C [13] of the same molecule?
The viability, T/C was 84.3%.

And the viability, T/C [14]?
Its viability, T/C is 92.5%.

And the viability, T/C [15]?
Its viability, T/C is 83.7%.

And the viability, T/C [16]?
Its viability, T/C is 63.1%.

And the viability, T/C [17]?
The viability, T/C was 54%.

What about the viability, T/C [18] of the same molecule?
Its viability, T/C is 49.5%.

What about the viability, T/C [19] of the same molecule?
The viability, T/C was 80.4%.

What about the viability, T/C [20] of the same molecule?
Its viability, T/C is 89.2%.

What about the viability, T/C [21] of the same molecule?
Its viability, T/C is 84.7%.

And the viability, T/C [22]?
Its viability, T/C is 67.7%.

What about the viability, T/C [23] of the same molecule?
Its viability, T/C is 50.4%.

And the viability, T/C [24]?
Its viability, T/C is 45.4%.

What about the viability, T/C [25] of the same molecule?
Its viability, T/C is 79.9%.

What about the viability, T/C [26] of the same molecule?
Its viability, T/C is 74.3%.

And the viability, T/C [27]?
The viability, T/C was 69.8%.

What about the viability, T/C [28] of the same molecule?
The viability, T/C was 51.1%.

And the viability, T/C [29]?
Its viability, T/C is 34.7%.

What about the viability, T/C [30] of the same molecule?
Its viability, T/C is 39.1%.

And the viability, T/C [31]?
Its viability, T/C is 75.6%.

And the viability, T/C [32]?
The viability, T/C was 57%.

What about the viability, T/C [33] of the same molecule?
The viability, T/C was 58.6%.

What about the viability, T/C [34] of the same molecule?
Its viability, T/C is 50.5%.

And the viability, T/C [35]?
Its viability, T/C is 7.86%.

What about the viability, T/C [36] of the same molecule?
Its viability, T/C is 3.2%.

What does the source list for `CC(=O)O[C@H]1C(=O)[C@@]2(C)[C@H]([C@H](OC(=O)c3ccccc3)[C@]3(O)C[C@H](OC(=O)[C@H](O)[C@@H](NC(=O)c4ccccc4)c4ccccc4)C(C)=C1C3(C)C)[C@]1(OC(C)=O)CO[C@@H]1C[C@@H]2O` + Cc1cnc(CNC(=O)c2c(=O)c3ccc(N4CCCN(C)CC4)nc3n3c2sc2ccccc23)cn1?
IC50 (second compound 0.0316 µM): > 10 µM; IC50 (second compound 0.1 µM): > 10 µM; IC50 (second compound 0.316 µM): > 10 µM; IC50 (second compound 1 µM): > 10 µM; IC50 (second compound 3.16 µM): > 10 µM; IC50 (second compound 10 µM): > 10 µM; viability, T/C [1]: 72.5%; viability, T/C [2]: 80.5%; viability, T/C [3]: 90.3%; viability, T/C [4]: 81.1%; viability, T/C [5]: 84.1%; viability, T/C [6]: 95.8%; viability, T/C [7]: 80.1%; viability, T/C [8]: 93.4%; viability, T/C [9]: 80.8%; viability, T/C [10]: 93.6%; viability, T/C [11]: 86.6%; viability, T/C [12]: 84.5%; viability, T/C [13]: 97.5%; viability, T/C [14]: 94%; viability, T/C [15]: 89.9%; viability, T/C [16]: 91%; viability, T/C [17]: 87.7%; viability, T/C [18]: 95.6%; viability, T/C [19]: 76%; viability, T/C [20]: 84.8%; viability, T/C [21]: 88.6%; viability, T/C [22]: 89.5%; viability, T/C [23]: 87%; viability, T/C [24]: 75.8%; viability, T/C [25]: 91.5%; viability, T/C [26]: 72.9%; viability, T/C [27]: 80.8%; viability, T/C [28]: 71.1%; viability, T/C [29]: 80.3%; viability, T/C [30]: 83.8%; viability, T/C [31]: 59.9%; viability, T/C [32]: 62.5%; viability, T/C [33]: 64.9%; viability, T/C [34]: 53.8%; viability, T/C [35]: 51.4%; viability, T/C [36]: 61.4%
